{
  "source": "ChEMBL document CHEMBL1201862",
  "about": "“PubChem BioAssay data set” (2004)",
  "assay_in_all_cases": "growth of human tumour cells (NCI), 48 h",
  "key": {"UACC-62": {"system": "UACC-62"}, "HCT-15": {"system": "HCT-15"}, "HOP-92": {"system": "HOP-92"}, "U-251": {"system": "U-251"}, "786-0": {"system": "786-0"}, "HOP-62": {"system": "HOP-62"}, "LOX IMVI": {"system": "LOX IMVI"}, "OVCAR-4": {"system": "OVCAR-4"}, "ACHN": {"system": "ACHN"}, "A498": {"system": "A498"}, "EKVX": {"system": "EKVX"}, "K562": {"system": "K562"}, "CCRF-CEM": {"system": "CCRF-CEM"}, "SN12C": {"system": "SN12C"}, "HL-60": {"system": "HL-60"}, "PC-3": {"system": "PC-3"}, "NCI/ADR-RES": {"system": "NCI/ADR-RES"}, "CAKI-1": {"system": "CAKI-1"}, "SF-539": {"system": "SF-539"}, "SF-295": {"system": "SF-295"}},
  "note": "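Exposure lasted 48 hours, with cells grown in 96-well plates and compounds tested at five concentrations. GI50 = concentration required for 50% inhibition of growth.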 Active and inactive are the calls of the source. Cut-off read from the data, not from the text of the source: active = GI50 up to about 1.1 µM and inactive = higher.",
  "data": [
    {"smiles": "ClCCCN1CCN(CCCl)CC1", "values": [
      {"measurement": "GI50", "setting": "UACC-62", "value": "10.5 µM (inactive)"},
      {"measurement": "GI50", "setting": "HCT-15", "value": 189, "unit": "µM"},
      {"measurement": "GI50", "setting": "HOP-92", "value": "105 µM (inactive)"},
      {"measurement": "GI50", "setting": "U-251", "value": "118 µM (inactive)"},
      {"measurement": "GI50", "setting": "786-0", "value": "49.7 µM (inactive)"},
      {"measurement": "GI50", "setting": "HOP-62", "value": "24.1 µM (inactive)"},
      {"measurement": "GI50", "setting": "LOX IMVI", "value": "59.8 µM (inactive)"},
      {"measurement": "GI50", "setting": "OVCAR-4", "value": "186 µM (inactive)"},
      {"measurement": "GI50", "setting": "ACHN", "value": "11.1 µM (inactive)"},
      {"measurement": "GI50", "setting": "A498", "value": "261 µM (inactive)"},
      {"measurement": "GI50", "setting": "EKVX", "value": "352 µM (inactive)"},
      {"measurement": "GI50", "setting": "K562", "value": "212 µM (inactive)"},
      {"measurement": "GI50", "setting": "CCRF-CEM", "value": "7.62 µM (inactive)"},
      {"measurement": "GI50", "setting": "SN12C", "value": "34.4 µM (inactive)"},
      {"measurement": "GI50", "setting": "HL-60", "value": "4.51 µM (inactive)"},
      {"measurement": "GI50", "setting": "PC-3", "value": "383 µM (inactive)"},
      {"measurement": "GI50", "setting": "NCI/ADR-RES", "value": "127 µM (inactive)"},
      {"measurement": "GI50", "setting": "CAKI-1", "value": "15.2 µM (inactive)"},
      {"measurement": "GI50", "setting": "SF-539", "value": "35.6 µM (inactive)"},
      {"measurement": "GI50", "setting": "SF-295", "value": "34.3 µM (inactive)"}
    ]},
    {"smiles": "Cc1ccc(-c2n[nH]c(=O)n2/N=C\\c2ccccc2)cc1", "values": [
      {"measurement": "GI50", "setting": "UACC-62", "value": "46.8 µM (inactive)"},
      {"measurement": "GI50", "setting": "HCT-15", "value": 72.6, "unit": "µM"},
      {"measurement": "GI50", "setting": "HOP-92", "value": "21 µM (inactive)"},
      {"measurement": "GI50", "setting": "U-251", "value": "29.8 µM (inactive)"},
      {"measurement": "GI50", "setting": "786-0", "value": "60.3 µM (inactive)"},
      {"measurement": "GI50", "setting": "HOP-62", "value": "22.6 µM (inactive)"},
      {"measurement": "GI50", "setting": "LOX IMVI", "value": "> 100 µM (inactive)"},
      {"measurement": "GI50", "setting": "OVCAR-4", "value": "61.5 µM (inactive)"},
      {"measurement": "GI50", "setting": "ACHN", "value": "50.6 µM (inactive)"},
      {"measurement": "GI50", "setting": "A498", "value": "36.6 µM (inactive)"},
      {"measurement": "GI50", "setting": "EKVX", "value": "24.9 µM (inactive)"},
      {"measurement": "GI50", "setting": "K562", "value": "> 76.2 µM (inactive)"},
      {"measurement": "GI50", "setting": "CCRF-CEM", "value": "> 80.9 µM (inactive)"},
      {"measurement": "GI50", "setting": "SN12C", "value": "34.5 µM (inactive)"},
      {"measurement": "GI50", "setting": "HL-60", "value": "70.1 µM (inactive)"},
      {"measurement": "GI50", "setting": "PC-3", "value": "> 63.2 µM (inactive)"},
      {"measurement": "GI50", "setting": "NCI/ADR-RES", "value": "25.2 µM (inactive)"},
      {"measurement": "GI50", "setting": "CAKI-1", "value": "57.9 µM (inactive)"},
      {"measurement": "GI50", "setting": "SF-539", "value": "76.2 µM (inactive)"},
      {"measurement": "GI50", "setting": "SF-295", "value": "28.2 µM (inactive)"}
    ]}
  ]
}
